From publication PMC4888459 (Biochemical Journal, 2016)
Each block holds one molecule with its values, some of them ahead of it.

Key:
agmatine deiminase (AgD) = agmatine deiminase (AgD) (Listeria monocytogenes, UniProt A0A0H3G8U9); test: IC50, colorimetric; type: biochemical
[1] = target: AgD from S. mutans (agmatine deiminase) (Streptococcus mutans, UniProt Q8DW17); test: IC50 plot; type: biochemical
purified protein = substrate: N=C(N)NCCCCN; test: purified protein; type: biochemical, Listeria monocytogenes; conditions: active site (Cys356, His216; Asp94 and Asp218 believed to orient the substrate)

AgD from S. mutans (agmatine deiminase), sequence (Q8DW17 whole entry): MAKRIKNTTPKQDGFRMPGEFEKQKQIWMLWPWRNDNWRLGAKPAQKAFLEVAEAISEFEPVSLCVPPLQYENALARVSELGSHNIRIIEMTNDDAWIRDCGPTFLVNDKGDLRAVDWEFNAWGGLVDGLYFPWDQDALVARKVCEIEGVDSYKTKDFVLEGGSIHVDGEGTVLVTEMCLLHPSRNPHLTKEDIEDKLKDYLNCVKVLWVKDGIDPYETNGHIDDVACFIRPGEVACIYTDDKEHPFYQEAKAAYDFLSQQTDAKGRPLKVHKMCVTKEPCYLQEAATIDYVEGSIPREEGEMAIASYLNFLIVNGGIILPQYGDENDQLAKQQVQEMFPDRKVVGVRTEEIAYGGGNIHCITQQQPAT

IC50 (agmatine deiminase (AgD)): 78.5 ± 1.7 µM
Molecule: N=C(CCl)NCCCCN [ABCA, N-(4-aminobutyl)-2-chloro-ethanimidamide]

Molecule: N=C(CF)NCCCCN [ABFA, N-(4-aminobutyl)-2-fluoro-ethanimidamide]
IC50 (agmatine deiminase (AgD)): 146 ± 15 µM

Molecule: N=C(N)CCl [2-chloroacetamidine]
IC50 [1]: 400 ± 100 µM

B1: agmatine deiminase (AgD) (Listeria monocytogenes 10403S) (protein)
chain: MRTIDSSSKKDGFRMPGEFEKHAGCYIIWPERPDNWRLGAKPAQKAFVDVATAISHFEPVTVVASSSQYVNARYMLSDEIRVVEMDNDDAWVRDSGPTFVVNDSGDVRGVDWSFNSWGGLVDGLYFPWDKDDQVAQKICELERKDRYRLADFVLEGGSIHVDGEGTLVTTEECLLSEGRNPQLSKQQIEMVLKEYLNLEKIIWLKRGIYLDETNGHVDNIFNYVRPGVVALAWTDDETDPQYEISKECFDILSNETDAKGRKLEVHKINVPKPILITDEESKGVDAVEGTLPREEGDRLAASYINYYTANGGVIFPLFGDPNDELAREKLQQLYPNCEVVGVKAREILLGGGNIHCITQQVPRG
Km (purified protein): 330 ± 90.0 µM
